Results from patent US20090117083A1, “IMMUNOMODULATORY ALKALOIDS” (M N L PHARMA LIMITED, priority 2004, published 2009).
Like-named read-outs stand apart in the source and are kept apart here.

Experiments:
α-L-fucosidase = molecular target: T1, α-L-fucosidase (Bos taurus, UniProt Q2KIM0); assay: Glycosidase inhibition: α-L-fucosidase; format: biochemical, Bovine; conditions: 1 mg/ml; read-out: % inhibition, fucosidase
T1 construct: purchased Sigma
T1 sequence (Q2KIM0 23-468): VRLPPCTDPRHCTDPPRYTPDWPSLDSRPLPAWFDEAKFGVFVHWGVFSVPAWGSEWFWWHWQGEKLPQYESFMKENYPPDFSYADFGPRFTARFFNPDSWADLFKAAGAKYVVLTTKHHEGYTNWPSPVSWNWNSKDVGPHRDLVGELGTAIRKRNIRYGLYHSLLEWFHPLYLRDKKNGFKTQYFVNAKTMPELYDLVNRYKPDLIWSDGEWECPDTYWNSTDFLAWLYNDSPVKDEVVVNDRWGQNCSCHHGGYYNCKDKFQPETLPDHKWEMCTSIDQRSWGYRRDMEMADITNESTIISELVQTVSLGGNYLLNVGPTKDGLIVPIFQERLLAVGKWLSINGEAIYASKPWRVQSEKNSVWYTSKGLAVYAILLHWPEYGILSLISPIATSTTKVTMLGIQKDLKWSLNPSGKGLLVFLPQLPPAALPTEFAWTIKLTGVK
Experimental: (§1) All enzymes were purchased from Sigma, as were the appropriate p-nitrophenyl substrates. Assays were carried out in microtitre plates. Enzymes were assayed in 0.1M citric acid/0.2M di-sodium hydrogen phosphate (McIlvaine) buffers at the optimum pH for the enzyme. All assays were carried out at 20° C. For screening assays the incubation assay consisted of 10 μl of enzyme solution, 10 μl of inhibitor solution (made up in water) and 50 μl of the appropriate 5 mM p-nitrophenyl substrate (3.57 mM final conc.) made up in McIlvaine buffer at the optimum pH for the enzyme.
(§2) The reactions were stopped with 0.4M glycine (pH 10.4) during the exponential phase of the reaction, which was determined at the beginning of the assay using blanks with water, which were incubated for a range of time periods to measure the reaction rate using 5 mM substrate solution. Endpoint absorbances were read at 405 nm with a Biorad microtitre plate reader (Benchmark). Water was substituted for the inhibitors in the blanks.

α-D-glucosidase [1] = molecular target: T2, α-D-glucosidase (Oryza sativa subsp. japonica, UniProt Q653V7); assay: Glycosidase inhibition: α-D-glucosidase, rice; format: biochemical, rice (Oryza sativa); conditions: 1 mg/ml; read-out: % inhibition, gluc (rice)
T2 construct: purchased Sigma
T2 sequence (Q653V7 34-885): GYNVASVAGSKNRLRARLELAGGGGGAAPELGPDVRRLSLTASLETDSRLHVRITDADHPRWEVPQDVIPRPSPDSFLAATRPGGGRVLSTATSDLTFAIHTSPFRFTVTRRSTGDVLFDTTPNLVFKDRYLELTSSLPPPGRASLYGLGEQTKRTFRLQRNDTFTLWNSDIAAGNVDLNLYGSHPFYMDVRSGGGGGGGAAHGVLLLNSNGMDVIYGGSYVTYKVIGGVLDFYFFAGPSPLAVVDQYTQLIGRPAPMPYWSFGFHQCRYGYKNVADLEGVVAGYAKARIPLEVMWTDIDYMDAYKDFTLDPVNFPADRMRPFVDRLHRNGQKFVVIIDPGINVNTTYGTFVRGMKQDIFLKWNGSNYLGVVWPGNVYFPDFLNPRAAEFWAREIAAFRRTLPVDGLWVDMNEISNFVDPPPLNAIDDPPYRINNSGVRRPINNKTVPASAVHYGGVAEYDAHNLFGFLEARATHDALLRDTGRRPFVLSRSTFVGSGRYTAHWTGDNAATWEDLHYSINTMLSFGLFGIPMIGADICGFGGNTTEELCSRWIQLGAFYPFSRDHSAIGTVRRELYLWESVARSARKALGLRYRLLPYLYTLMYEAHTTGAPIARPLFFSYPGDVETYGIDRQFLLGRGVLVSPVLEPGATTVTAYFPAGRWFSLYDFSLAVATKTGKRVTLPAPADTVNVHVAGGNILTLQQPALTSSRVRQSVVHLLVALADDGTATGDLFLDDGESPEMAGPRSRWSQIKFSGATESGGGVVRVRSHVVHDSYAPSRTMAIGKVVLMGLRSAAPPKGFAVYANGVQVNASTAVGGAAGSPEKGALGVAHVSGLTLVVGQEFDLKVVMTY
Experimental: as §1, §2

α-D-glucosidase [2] = assay: Glycosidase inhibition: α-D-glucosidase, Bacillus; format: biochemical, Bacillus stearothermophilus; conditions: 1 mg/ml
Experimental: as §1, §2

Naringinase = assay: Glycosidase inhibition: Naringinase; format: biochemical, Penecillium decumbens; conditions: 1 mg/ml
Experimental: as §1, §2

α-D-glucosidase [3] = molecular target: T3, α-D-glucosidase (Saccharomyces cerevisiae, UniProt P53341); assay: Glycosidase inhibition (p-nitrophenyl substrate): α-D-glucosidase, yeast; format: biochemical, Saccharomyces cerevisiae (Baker's yeast); conditions: 1 mg/ml
T3 construct: purchased Sigma
T3 sequence (P53341 whole entry): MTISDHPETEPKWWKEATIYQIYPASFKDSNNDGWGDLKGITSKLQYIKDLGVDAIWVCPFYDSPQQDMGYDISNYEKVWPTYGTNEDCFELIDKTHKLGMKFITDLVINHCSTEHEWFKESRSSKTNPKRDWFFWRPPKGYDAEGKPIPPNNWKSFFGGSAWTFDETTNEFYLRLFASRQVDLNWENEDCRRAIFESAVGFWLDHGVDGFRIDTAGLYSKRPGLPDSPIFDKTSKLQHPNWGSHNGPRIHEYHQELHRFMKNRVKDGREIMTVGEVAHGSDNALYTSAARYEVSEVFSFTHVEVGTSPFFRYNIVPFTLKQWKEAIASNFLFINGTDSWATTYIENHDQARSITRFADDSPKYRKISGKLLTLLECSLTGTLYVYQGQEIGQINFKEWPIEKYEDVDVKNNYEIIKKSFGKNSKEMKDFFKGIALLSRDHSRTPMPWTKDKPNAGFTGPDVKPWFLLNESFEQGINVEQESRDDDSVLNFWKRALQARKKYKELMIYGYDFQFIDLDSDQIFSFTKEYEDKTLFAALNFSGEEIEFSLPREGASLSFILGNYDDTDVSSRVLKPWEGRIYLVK
Experimental: as §1, §2

[4] = system: N-acetyl-β-D-glucosaminidase; assay: Glycosidase inhibition: N-acetyl-β-D-glucosaminidase; format: biochemical, Bovine; conditions: 1 mg/ml
Experimental: as §1, §2

α-D-mannosidase = molecular target: T4, α-D-mannosidase (Canavalia ensiformis, UniProt C0HJB3); assay: Glycosidase inhibition: α-D-mannosidase; format: biochemical, Jack beans (Canavalia ensiformis)
T4 construct: purchased Sigma
T4 sequence (C0HJB3 whole entry): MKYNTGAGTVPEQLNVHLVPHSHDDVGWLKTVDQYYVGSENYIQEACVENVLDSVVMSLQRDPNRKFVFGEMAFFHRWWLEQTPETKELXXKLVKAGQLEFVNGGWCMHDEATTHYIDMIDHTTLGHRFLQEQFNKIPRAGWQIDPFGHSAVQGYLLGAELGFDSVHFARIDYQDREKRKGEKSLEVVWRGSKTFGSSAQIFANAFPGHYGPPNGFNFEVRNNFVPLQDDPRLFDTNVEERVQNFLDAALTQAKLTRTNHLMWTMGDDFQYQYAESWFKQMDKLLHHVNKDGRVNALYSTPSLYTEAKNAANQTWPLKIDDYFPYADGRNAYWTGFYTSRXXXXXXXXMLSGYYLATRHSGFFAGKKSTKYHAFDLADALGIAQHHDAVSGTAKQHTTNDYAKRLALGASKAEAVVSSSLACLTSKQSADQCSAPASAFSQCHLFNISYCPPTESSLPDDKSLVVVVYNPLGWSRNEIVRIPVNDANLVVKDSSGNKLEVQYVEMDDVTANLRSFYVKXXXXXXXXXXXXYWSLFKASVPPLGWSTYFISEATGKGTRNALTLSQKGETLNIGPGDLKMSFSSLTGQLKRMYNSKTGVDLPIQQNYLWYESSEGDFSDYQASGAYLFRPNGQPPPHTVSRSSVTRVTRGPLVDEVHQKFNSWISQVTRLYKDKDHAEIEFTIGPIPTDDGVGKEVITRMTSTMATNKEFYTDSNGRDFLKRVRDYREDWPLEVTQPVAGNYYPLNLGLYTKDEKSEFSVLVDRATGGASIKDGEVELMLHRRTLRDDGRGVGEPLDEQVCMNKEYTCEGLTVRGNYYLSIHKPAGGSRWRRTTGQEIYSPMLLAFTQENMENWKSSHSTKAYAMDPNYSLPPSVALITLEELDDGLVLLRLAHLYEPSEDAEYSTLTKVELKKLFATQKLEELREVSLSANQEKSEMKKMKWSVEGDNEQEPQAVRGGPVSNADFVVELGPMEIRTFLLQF
Experimental: All enzymes were purchased from Sigma, as were the appropriate p-nitrophenyl substrates. Assays were carried out in microtitre plates. Enzymes were assayed in 0.1M citric acid/0.2M di-sodium hydrogen phosphate (McIlvaine) buffers at the optimum pH for the enzyme. All assays were carried out at 20° C.
Endpoint absorbances were read at 405 nm with a Biorad microtitre plate reader (Benchmark). Water was substituted for the inhibitors in the blanks.

α-D-galactosidase = molecular target: T5, α-D-galactosidase (Coffea arabica, UniProt Q42656); assay: Glycosidase inhibition: α-D-galactosidase; format: biochemical, Green coffee beans (Coffea sp.)
T5 construct: purchased Sigma
T5 sequence (Q42656 16-378): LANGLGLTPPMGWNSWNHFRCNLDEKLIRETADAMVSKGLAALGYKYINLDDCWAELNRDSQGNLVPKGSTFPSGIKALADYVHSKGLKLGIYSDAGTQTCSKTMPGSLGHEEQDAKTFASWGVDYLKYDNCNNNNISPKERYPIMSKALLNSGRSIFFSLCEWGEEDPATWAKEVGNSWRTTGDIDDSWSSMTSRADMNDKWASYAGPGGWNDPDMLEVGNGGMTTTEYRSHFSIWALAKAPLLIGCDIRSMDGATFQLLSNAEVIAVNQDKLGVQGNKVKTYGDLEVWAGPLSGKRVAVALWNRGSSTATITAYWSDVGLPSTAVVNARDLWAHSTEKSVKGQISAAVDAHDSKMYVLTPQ
Experimental: as §1, §2

β-D-glucosidase = assay: Glycosidase inhibition: β-D-glucosidase, almond; format: biochemical, Almonds (Prunus sp.); conditions: 1 mg/ml
Experimental: as §1, §2

spleen cells = assay: Cytokine modulation in spleen cells (IFN-γ); format: cell-based, BALB/c mice
Experimental: BALB/c male and female mice bred and maintained at the University of Strathclyde under conventional conditions were used at varying age.
Cells suspensions were prepared by using the end of a syringe and grinding the spleen through a wire mesh. The cell suspension was then centrifuged at 1000 rpm for 5 minutes. To remove the erythrocytes, the cell pellet was resuspended in Boyle's solution (Tris 0.17M & Ammonium Chloride 0.16M) and centrifuged again for 5 minutes. The pellet was then washed in medium a further two times, then resuspended in 3 mls medium. A cell count was then carried out.
All spleen cell experiments were carried out in 96-well tissue culture plates. […] Unstimulated wells contained 100 μl of cells and 100 μl of medium. The stimulated wells contained 100 μl of cells plus 50 μl of LPS at 1 μg/ml or 50 μl anti-CD3 at 0.5 μg/ml and 50 μl of medium. The remaining wells contained 100 μl cells, 5 μl of MNLP compound and either 50 μl of anti-CD3 or medium alone.
The appropriate Mabs and standards were used according to the protocol described for IL-12 (described in Example 1, above).

B16-F10 tumour cells = assay: Control of lung metastasis in mice (B16-F10); format: in vivo, C57/bl6 mice; conditions: 50 mg/kg s/c on days 2 and 4; lungs on day 14
Experimental: Mice (C57/bl6 under i/p ketamine anaesthesia) were challenged i/v (tail vein) with 5×10^4 B16-F10 tumour cells in a final volume of 100 μl per mouse on day 0. Test compounds (50 mg/kg in 200 μl sterile non-pyrogenic saline) were administered sic (right flank) on days 2 and 4. On day 14 the mice were sacrifices and the lungs dissected and stained in Indian ink solution (150 ml bidistilled water, 30 ml India Ink, 4 drops NH4OH) for 10 minutes then fixed for at least 24 hr in Fakete's solution (90 ml 37% formaldehyde, 900 ml 70% EtOH and 45 ml glacial acetic acid). The metastases in the stained and fixed lungs could then be visualized, counted and photographed.

β-D-galactosidase = assay: Glycosidase inhibition: β-D-galactosidase; format: biochemical, Bovine; conditions: 1 mg/ml
Experimental: as §1, §2

[5] = read-out: % inhibition, gluc (yeast)
[6] = read-out: % inhibition, mannosidase
[7] = read-out: % inhibition, galactosidase

SMILES | inhibition at 1000 µg/mL (α-L-fucosidase) | inhibition at 1000 µg/mL (α-D-glucosidase [1]) | % inhibition, gluc (Bacillus) (α-D-glucosidase [2]) | % inhibition, Naringinase (Naringinase) | inhibition at 1000 µg/mL (α-D-glucosidase [3]; [5]) | % inhibition, N-acetyl-β-gluc [4] | inhibition at 1000 µg/mL (α-D-mannosidase; [6]) | inhibition at 1000 µg/mL (α-D-galactosidase; [7]) | % inhibition, glucosidase (β-D-glucosidase) | IFN-γ secretion/production in splenocytes (spleen cells) | Metastatic morphology (B16-F10 tumour cells) | inhibition at 1000 µg/mL (α-D-glucosidase [3]; read-out: % inhibition, α-gluc (yeast)) | inhibition at 1000 µg/mL (α-D-mannosidase; read-out: % inhibition, α-mannosidase) | % inhibition, β-galactosidase (β-D-galactosidase) | inhibition at 1000 µg/mL (α-D-galactosidase; 1 mg/ml, read-out: % inhibition, α-galactosidase) | % inhibition, β-glucosidase (β-D-glucosidase)
OC[C@H]1[C@@H](O)[C@H](O)[C@H]2[C@@H](O)[C@H](O)CN21 [Compound 12, 3,6,7-triepi-casuarine] | -11% | 0% | 9% | 0% | 2% | 19% | 8% | 2% | 6% | – | – | – | – | – | – | –
OC[C@H]1[C@@H](O)[C@H](O)[C@@H]2[C@@H](O)[C@H](O)CN21 [Compound 21, 3,6,7,7a-tetraepi-casuarine] | – | 46% | −2% | 5% | – | 27% | 1% | -3% | 44% | – | – | – | – | – | – | –
OC[C@H]1NC[C@H](O)[C@@H](O)[C@@H]1O [1-Deoxynojirimycin (DNJ) (21), 1-Deoxynojirimycin] | – | – | – | – | – | – | – | – | – | inhibited | – | – | – | – | – | –
OC[C@H]1[C@@H](O)[C@H](O)[C@@H]2[C@@H](O)[C@@H](O)CN21 [Compound 22, 3,7,7a-triepi-casuarine] | – | 0% | 87% | 10% | 29% | – | – | – | 52% | – | – | – | – | – | – | –
OC[C@H]1[C@@H](O)[C@H](O)[C@H]2[C@H](O)[C@@H](O)CN21 [3-epi-casuarine (14), 3-epi-casuarine] | -2% | 13% | 12% | 21% | – | −1% | – | 4% | 56% | – | Metastasis restricted to apical tip of lung | – | – | – | – | –
O[C@@H]1[C@@H]2[C@@H](O)[C@H](O)[C@@H](O)CN2C[C@@H]1O [Compound 44, 2-β-hydroxycastanospermine] | – | – | – | 6% | – | 13% | – | – | – | – | – | 8% | 1% | −1% | -4% | 20%
OC[C@@H]1[C@@H](O)[C@H](O)[C@H]2[C@@H](O)[C@@H](O)CN21 [7-epi-casuarine (11), 7-epi-casuarine] | 25% | 73% | 5% | −4% | – | – | – | 1% | 30% | – | – | – | – | – | – | –
